Source: patent US10689354B2, “Aminoazole derivative” (Teijin Pharma Limited, priority 2015, dated 2020)

Target: T1, androgen receptor (AR-LBD) (Rattus norvegicus, UniProt P15207)
T1 construct: 5 μL of 2×AR-LBD/Fluoromone AL Red Complex contained in the kit; purchased Invitrogen
T1 sequence (P15207 651-882 limits assumed): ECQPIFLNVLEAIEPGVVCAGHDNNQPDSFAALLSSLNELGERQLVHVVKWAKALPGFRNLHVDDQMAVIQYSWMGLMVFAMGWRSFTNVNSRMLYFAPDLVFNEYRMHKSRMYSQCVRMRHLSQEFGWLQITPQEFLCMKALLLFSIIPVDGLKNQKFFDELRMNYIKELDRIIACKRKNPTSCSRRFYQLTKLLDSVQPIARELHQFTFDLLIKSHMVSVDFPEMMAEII
Experiment: Evaluation of androgen receptor affinity (PolarScreen Androgen Receptor Competitor Assay Kit, Red; fluorescence polarization)
Conditions: 22° C. for 5 hours, relative to binding rate of 1 μM DHT, read-out: AR affinity (pEC50) (converted)
How it was run: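 Compounds were mixed with AR-LBD/Fluoromone AL Red complex and incubated 5 h at 22° C before fluorescence polarization was read. Binding was expressed relative to 1 μM dihydrotestosterone, and pEC50 (concentration giving 50% of that binding) came from a 4-parameter fit.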

EC50 | Structure (SMILES)
> 2000 nM | Cc1sc(N(CCC2CCCN2C)c2ccc(C#N)cc2)nc1C(=O)NS(C)(=O)=O (centres unmarked) [Compound 481, 2-[4-cyano-N-[2-(1-methylpyrrolidin-2-yl)ethyl]anilino]-5-methyl-N-methylsulfonyl-thiazole-4-carboxamide]
1260 nM | C=CCCN(c1ccc(C#N)cc1)c1nc(C(=O)NS(C)(=O)=O)c(C)s1 [Compound 448, 2-(N-but-3-enyl-4-cyano-anilino)-5-methyl-N-methylsulfonyl-thiazole-4-carboxamide]
501 nM | Cc1sc(N(Cc2ccc(C(F)(F)F)cc2C(F)(F)F)c2ccc(C#N)cc2)nc1C(=O)NS(C)(=O)=O [Compound 414, 2-[N-[[2,4-bis(trifluoromethyl)phenyl]methyl]-4-cyano-anilino]-5-methyl-N-methylsulfonyl-thiazole-4-carboxamide]
> 2000 nM | Cc1sc(N(Cc2ccccc2)c2ccc(O)cc2)nc1C(=O)NS(C)(=O)=O [Example 206, 2-(N-benzyl-4-hydroxy-anilino)-5-methyl-N-methylsulfonyl-thiazole-4-carboxamide]
1260 nM | Cc1sc(N(Cc2ccccc2)c2ccc(F)cc2F)nc1C(=O)NS(C)(=O)=O [Compound 36, 2-(N-benzyl-2,4-difluoro-anilino)-5-methyl-N-methylsulfonyl-thiazole-4-carboxamide]
> 2000 nM | COc1ccc(CCN(Cc2ccccc2)c2nc(C(=O)NS(C)(=O)=O)c(C)s2)cc1OC [Example 307, 2-[benzyl-[2-(3,4-dimethoxyphenyl)ethyl]amino]-5-methyl-N-methylsulfonyl-thiazole-4-carboxamide]
> 2000 nM | Cc1sc(N(Cc2ccccc2)c2ccc(OCCOCc3ccccc3)cc2)nc1C(=O)NS(C)(=O)=O [Example 209, 2-[N-benzyl-4-(2-benzyloxyethoxy)anilino]-5-methyl-N-methylsulfonyl-thiazole-4-carboxamide]
> 2000 nM | Cc1sc(N(Cc2ccccc2)c2cccc(CCOCc3ccccc3)c2)nc1C(=O)NS(C)(=O)=O [Example 231, 2-[N-benzyl-3-(2-benzyloxyethyl)anilino]-5-methyl-N-methylsulfonyl-thiazole-4-carboxamide]
631 nM | Cc1sc(N(CCc2ccc3ccccc3c2)Cc2ccccc2)nc1C(=O)NS(C)(=O)=O [Example 312, 2-[benzyl-[2-(2-naphthyl)ethyl]amino]-5-methyl-N-methylsulfonyl-thiazole-4-carboxamide]
398 nM | Cc1sc(N(Cc2ccc(OCCN3CCCC3=O)cc2)c2ccc(C#N)cc2)nc1C(=O)NS(C)(=O)=O [Compound 575, 2-[4-cyano-N-[[4-[2-(2-oxopyrrolidin-1-yl)ethoxy]phenyl]methyl]anilino]-5-methyl-N-methylsulfonyl-thiazole-4-carboxamide]
> 2000 nM | Cc1sc(N(Cc2ccccc2)c2ccc(OCC(=O)N(C)C)cc2)nc1C(=O)NS(C)(=O)=O [Example 214, 2-[N-benzyl-4-[2-(dimethylamino)-2-oxo-ethoxy]anilino]-5-methyl-N-methylsulfonyl-thiazole-4-carboxamide]
1260 nM | Cc1sc(N(Cc2ccc(OCC(=O)N(C)C)cc2)c2ccc(C#N)cc2)nc1C(=O)NS(C)(=O)=O [Compound 570, 2-[4-cyano-N-[[4-[2-(dimethylamino)-2-oxo-ethoxy]phenyl]methyl]anilino]-5-methyl-N-methylsulfonyl-thiazole-4-carboxamide]
> 2000 nM | Cc1sc(N(c2ccc(C#N)cc2)C(C)c2ccccc2)nc1C(=O)NS(C)(=O)=O (centres unmarked) [Compound 58, 2-[4-cyano-N-(1-phenylethyl)anilino]-5-methyl-N-methylsulfonyl-thiazole-4-carboxamide]
> 2000 nM | Cc1sc(N(CCc2c(Cl)cccc2Cl)Cc2ccccc2)nc1C(=O)NS(C)(=O)=O [Example 316, 2-[benzyl-[2-(2,6-dichlorophenyl)ethyl]amino]-5-methyl-N-methylsulfonyl-thiazole-4-carboxamide]
398 nM | Cc1sc(N(CCOC(C)C)c2ccc(C#N)cc2)nc1C(=O)NS(C)(=O)=O [Compound 449, 2-[4-cyano-N-(2-isopropoxyethyl)anilino]-5-methyl-N-methylsulfonyl-thiazole-4-carboxamide]
25.1 nM | Cc1ccc(CN(c2ccc(C#N)cc2)c2nc(C(=O)NS(C)(=O)=O)c(Cl)s2)cc1 [Example 267, 5-chloro-2-[4-cyano-N-(p-tolylmethyl)anilino]-N-methylsulfonyl-thiazole-4-carboxamide]
> 2000 nM | Cc1sc(N(Cc2ccccc2)c2ccc(C#N)cc2)nc1C(=O)NS(=O)(=O)CCN1C(=O)c2ccccc2C1=O [Compound 373, 2-(N-benzyl-4-cyano-anilino)-N-[2-(1,3-dioxoisoindolin-2-yl)ethylsulfonyl]-5-methyl-thiazole-4-carboxamide]
> 2000 nM | Cc1sc(N(CCn2nccc2C)Cc2ccccc2)nc1C(=O)NS(C)(=O)=O [Compound 682, 2-[benzyl-[2-(5-methylpyrazol-1-yl)ethyl]amino]-5-methyl-N-methylsulfonyl-thiazole-4-carboxamide]
501 nM | Cc1sc(N(Cc2cccc(OCCO)c2)c2ccc(C#N)cc2)nc1C(=O)NS(C)(=O)=O [Compound 587, 2-[4-cyano-N-[[3-(2-hydroxyethoxy)phenyl]methyl]anilino]-5-methyl-N-methylsulfonyl-thiazole-4-carboxamide]
501 nM | Cc1sc(N(CC2CCC2)c2ccc(C#N)cc2)nc1C(=O)NS(C)(=O)=O [Compound 440, 2-[4-cyano-N-(cyclobutylmethyl)anilino]-5-methyl-N-methylsulfonyl-thiazole-4-carboxamide]
158 nM | Cc1sc(N(Cc2cccc3nonc23)c2ccc(C#N)cc2)nc1C(=O)NS(C)(=O)=O [Compound 92, 2-[N-(2,1,3-benzoxadiazol-4-ylmethyl)-4-cyano-anilino]-5-methyl-N-methylsulfonyl-thiazole-4-carboxamide]
316 nM | CC[C@H](C)CN(c1ccc(C#N)cc1)c1nc(C(=O)NS(C)(=O)=O)c(C)s1 [Compound 446, 2-(4-cyano-N-[(2S)-2-methylbutyl]anilino)-5-methyl-N-methylsulfonyl-thiazole-4-carboxamide]
> 2000 nM | Cc1sc(N(CCC(F)(F)F)Cc2ccccc2)nc1C(=O)NS(C)(=O)=O [Compound 711, 2-[benzyl(3,3,3-trifluoropropyl)amino]-5-methyl-N-methylsulfonyl-thiazole-4-carboxamide]
1260 nM | Cc1sc(N(CC[C@@H]2CC[C@@H](O)C2)c2ccc(C#N)cc2)nc1C(=O)NS(C)(=O)=O (racemic) [Compound 459, 2-[4-cyano-N-[2-[trans-3-hydroxycyclopentyl]ethyl]anilino]-5-methyl-N-methylsulfonyl-thiazole-4-carboxamide]
> 2000 nM | COCCN(c1ccc(C#N)cc1)c1nc(C(=O)NS(C)(=O)=O)c(C)s1 [Compound 357, 2-[4-cyano-N-(2-methoxyethyl)anilino]-5-methyl-N-methylsulfonyl-thiazole-4-carboxamide]
> 2000 nM | Cc1sc(N(C)c2ccc(C#N)cc2)nc1C(=O)NS(C)(=O)=O [Compound 60, 2-(4-cyano-N-methyl-anilino)-5-methyl-N-methylsulfonyl-thiazole-4-carboxamide]
